{
  "source": "paper PMC11374660",
  "about": "“The novel family of Warbicin® compounds inhibits glucose uptake both in yeast and human cells and restrains cancer cell proliferation” (Frontiers in Oncology, 2024)",
  "key": {"yeast Hxt7": {"biological_target": "T1, yeast Hxt7 (Saccharomyces cerevisiae, UniProt P39004)", "T1 construct": "expressed in transfected cells; host or cells: S. cerevisiae RE700A hxt0 gal2Δ (A7) or EBY.VW4000 hxt0 erg4Δ (A9) transformed with pHXT7", "T1 sequence (P39004 whole entry)": "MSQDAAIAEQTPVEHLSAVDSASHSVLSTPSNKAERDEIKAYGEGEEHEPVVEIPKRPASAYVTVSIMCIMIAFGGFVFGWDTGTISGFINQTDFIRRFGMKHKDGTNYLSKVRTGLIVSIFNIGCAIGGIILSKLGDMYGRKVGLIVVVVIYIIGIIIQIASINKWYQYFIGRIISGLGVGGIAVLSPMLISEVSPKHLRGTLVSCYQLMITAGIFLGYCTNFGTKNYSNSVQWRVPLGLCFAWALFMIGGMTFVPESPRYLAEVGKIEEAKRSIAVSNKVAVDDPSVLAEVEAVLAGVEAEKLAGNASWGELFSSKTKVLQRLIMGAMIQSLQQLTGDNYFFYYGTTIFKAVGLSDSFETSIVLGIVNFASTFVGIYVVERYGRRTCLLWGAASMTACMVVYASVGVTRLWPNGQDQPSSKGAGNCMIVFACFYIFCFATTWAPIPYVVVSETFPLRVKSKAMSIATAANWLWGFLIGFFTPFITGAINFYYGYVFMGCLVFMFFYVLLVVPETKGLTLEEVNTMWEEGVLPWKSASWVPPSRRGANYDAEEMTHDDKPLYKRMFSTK", "experiment": "Glucose uptake by Hxt7 expressed in yeast RE700A hxt^0 gal2Δ", "type": "cell-based, S. cerevisiae", "conditions": "25 µM, hxt^0 gal2Δ strain", "method": "Cells of S. cerevisiae were either grown in minimal or rich medium. For minimal medium, cells were grown in Complete Synthetic medium (MP biomedicals) containing 0.5% (w/v) ammonium sulphate (Sigma-Aldrich), 0.17% (w/v) yeast nitrogen base without amino acids and without ammonium sulphate, supplemented with 100 mg/L adenine. In the case of auxotrophic selection, the appropriate composition of essential amino acids (MP Biomedicals) was chosen. For liquid medium, pH was adjusted to 5.5 and for solid medium (2% agar) to 6.5 with KOH. For rich medium, cells were grown on YP medium (1% w/v yeast extract, 2% w/v bacteriological peptone), supplemented with 100 mg/L adenine. Cells of the EBY.VW4000 hxt^0 strain expressing a single HXT carrier or GLUT isoform were (pre)grown in YP medium with 58 mM maltose (which is taken up by its own dedicated maltose transporter). S. cerevisiae cells were always grown at 30°C. Liquid cultures were shaken at 200 rpm.\nZero-trans uptake of radioactively labeled [U-^14C]glucose, [U-^14C]fructose or [U-^14C]galactose by S. cerevisiae cells was determined in accordance with previous studies ([45], [75]). Cells were grown on different carbon sources depending on the experiment. […] The loaded filter was transferred to a scintillation vial containing 3 mL liquid scintillation cocktail (Ultima-Flo M, Perkin Elmer) and counted using the Hidex 300 SL. […]"}, "yeast tps1Δ cells": {"tested_on": "yeast tps1Δ cells", "experiment": "Glu6P and Fru1,6bisP accumulation in tps1Δ yeast cells after glucose addition", "type": "cell-based, S. cerevisiae", "conditions": "compound added at -10 min", "method": "For measuring metabolite levels, yeast cells were typically grown in Complete Synthetic medium. […] However, when comparing the effect of Warbicin ® compounds on metabolite profiles of wild type and tps1Δ strains, cells were grown on 110 mM galactose. When grown to exponential phase, cells were harvested by centrifugation and washed twice with ice-cold 25 mM 2-(N-Morpholino)ethanesulfonic acid (MES) buffer, pH 6. Cells were suspended in Complete Synthetic medium without sugar at a concentration of 75 mg (wet weight)/mL followed by a temperature equilibration at 30°C in a shaking water bath for 30 min. Depending on the experiment, a final concentration of 2.5 mM, 7.5 mM or 10 mM glucose was added to the cell suspension. Compounds were added 10 min prior to glucose addition. […]\nThrough endpoint measurement of the absorbance of NADH or NADPH at 340 nm, metabolite concentrations in the yeast cells were calculated by applying Lambert’s Law. Different metabolites were measured through the use of coupled enzymatic reactions. […] Depending on the measured metabolite, different co-factors and auxiliary enzymes were added. For measuring glucose-6-phosphate, 1.07 mM NADP^+ was added to the assay buffer after which the baseline absorbance was measured. […] After stabilization of the OD340 spectra, ATP concentrations were measured by additionally adding 10 mM MgCl2 and 0.5 mM glucose to the assay buffer. […]"}},
  "data": [
    {"smiles": "Cc1nc(Sc2nnc3n2CCCCC3)c2c(-c3cccs3)csc2n1", "note": "[WBC-A]", "values": [
      {"measurement": "inhibition of 2.5 mM glucose uptake by Hxt7", "setting": "yeast Hxt7", "result": "inhibited glucose uptake both by Hxt7 and GLUT1^V69M"},
      {"measurement": "hyperaccumulation of Glu6P and Fru1,6bisP after addition of 2.5 mM glucose", "setting": "yeast tps1Δ cells", "result": "concentration-dependent gradual drop in Glu6P and a more precipitous drop in Fru1,6bisP"}
    ]}
  ]
}
